Measured values taken from US6939879B2, “Use of R (+)-α-(2,3-dimethoxyphenyl)-1-[2-(4-fluorophenyl)ethyl]-4-piperidinemethanol for the treatment of substance induced insomnia” (Aventis Pharmaceuticals Inc., priority 1998, dated 2005).

Tests used:
[1] = system: anaesthetized newborn Sprague Dawley rats; assay: Depression of genioglossal EMG induced by L-Tryptophan and Pargyline; assay type: in vivo, rat; conditions: for prevention of depression of the amplitude of GG inspiratory discharges by L-Trp+Prg: five newborn rats
Description: (§1) Intraperitoneal application of L-Tryptophan (10 mg/kg) and Pargyline (50 mg/kg) to anaesthetized newborn rats depressed the amplitude of the inspiratory discharges of the genioglossal muscle and induced obstructive apneas (OA).
(§2) Experiments were carried out on newborn Sprague Dawley rats from Iffa Credo breeding center. The animals were anaesthetized by intraperitoneal injection of low doses of sodium pentobarbitone (7-10 mg/kg), kept lying (dorsal cubitus) on a warming blanket and were spontaneously ventilating.
(§3) The EMG activity of the genioglossal muscles and the diaphragm were recorded with fine insulated wires (bipolar recordings) inserted within the muscles, filtered (100-3,000 Hz), amplified (×5-10,000) and integrated (time constant 50 ms). The rib cage movements were recorded via a captor gently touching the lower ribs and/or the abdominal wall. The air flow changes resulting from the respiratory chest movements were recorded via a facial mask and a highly sensitive pressure recorder.
Then, the animal received an intraperitoneal injection of L-Tryptophan plus Pargyline (“L-Trp+Parg”) 10 mg/kg and 50 mg/kg, respectively, and the changes in EMG amplitudes were checked every 10 minutes and were expressed as % of control values.

[2] = system: anaesthetized newborn Sprague Dawley rats; assay: Occurrence of obstructive apnea induced by L-Tryptophan and Pargyline injection; assay type: in vivo, rat
Description: as §1, §2, §3

healthy subjects [3] = assay: Single oral dose in healthy subjects, sedation (Example 4A); assay type: in vivo, human
Description: Forty percent of the subjects receiving the 20 mg dose (2 out of 5) and sixty percent of the subjects receiving the 10 mg dose (3 out of 5) experienced mild to moderate sedation. […]

[4] = system: patients diagnosed with schizophrenia; assay: Insomnia and somnolence reported by patients with schizophrenia, twice daily oral dosing (Example 4B); assay type: in vivo, human
Description: Forty percent of the subjects receiving the 20 mg dose (2 out of 5) and sixty percent of the subjects receiving the 10 mg dose (3 out of 5) experienced mild to moderate sedation. […] The following data were reported.

healthy subjects [5] = assay: Drowsiness in healthy subjects after oral doses (Example 4C); assay type: in vivo, human; conditions: for Drowsiness, % of subjects / Drowsiness, n of subjects: n = 4; for rating of the drowsiness: oral
From the text: The following data were reported.

healthy subjects [6] = assay: Drowsiness in healthy subjects, 3-72 mg doses (Example 4D); assay type: in vivo, human
Description: D) In healthy subjects, the COMPOUND was administered in 3 mg (n=4), 9 mg (n=4), 18 mg (n=4), 36 mg (n=4) and 72 mg (n=4) doses along with the placebo (n=5) wherein “n” is the number of subjects.

[7] = pre-treatment 0.1 mg/kg intraperitoneal, ten newborn rats
[8] = pre-treatment 0.1 mg/kg, L-Trp+Parg 10 min later
[9] = pre-treatment 1 mg/kg, ten rats

## Cn1c(=O)c2[nH]cnc2n(C)c1=O [theophylline, reference compound]
[1]; pre-treatment 10 mg/kg
  prevention of depression of the amplitude of GG inspiratory discharges by L-Trp+Prg: not prevented
[1]; pre-treatment 30 mg/kg
  prevention of depression of the amplitude of GG inspiratory discharges by L-Trp+Prg: not prevented
[2]; pre-treatment 10 mg/kg
  prevention of induction of OAs after L-Trp+Prg injection: not prevented
[2]; pre-treatment 30 mg/kg
  prevention of induction of OAs after L-Trp+Prg injection: not prevented

## COc1cccc([C@H](O)C2CCN(CCc3ccc(F)cc3)CC2)c1OC [COMPOUND, R-(+)-α-(2,3-Dimethoxyphenyl)-1-[2-(4-fluorophenyl)ethyl]-4-piperidinemethanol]
Healthy subjects [3]; single 10 mg oral dose
  subjects who experienced mild to moderate sedation: 3 out of 5
Healthy subjects [3]; single 20 mg oral dose
  subjects who experienced mild to moderate sedation: 2 out of 5
[4]; 10 mg (5 mg twice daily) oral
  Insomnia, % of subjects: N = 0; 0%
  Insomnia, N (number of subjects that reported the effect): N = 0; 0%
  Somnolence, % of subjects: 20%
  Somnolence, N (number of subjects that reported the effect): 3
[4]; 20 mg (10 mg twice daily) oral
  Insomnia, % of subjects: 21.4%
  Insomnia, N (number of subjects that reported the effect): N = 3:
  Somnolence, % of subjects: 15.4%
  Somnolence, N (number of subjects that reported the effect): N = 1;
[4]; 40 mg (20 mg twice daily) oral
  Insomnia, % of subjects: 23.1%
  Insomnia, N (number of subjects that reported the effect): N = 3;
  Somnolence, % of subjects: 15.4%
  Somnolence, N (number of subjects that reported the effect): N = 2;
Healthy subjects [5]; 9 mg oral
  Drowsiness, % of subjects: 50%
  Drowsiness, n of subjects: n = 2
Healthy subjects [5]; 18 mg oral
  Drowsiness, % of subjects: 100%
  Drowsiness, n of subjects: n = 4
Healthy subjects [5]; 36 mg oral
  Drowsiness, % of subjects: 100%
  Drowsiness, n of subjects: n = 4
Healthy subjects [5]; 72 mg and above
  rating of the drowsiness: moderate to severe
Healthy subjects [5]; 72 mg oral
  Drowsiness, % of subjects: 75%
  Drowsiness, n of subjects: n = 3
Healthy subjects [5]; 108 mg oral
  Drowsiness, % of subjects: 100%
  Drowsiness, n of subjects: n = 4
Healthy subjects [5]; 138 mg oral
  Drowsiness, % of subjects: 100%
  Drowsiness, n of subjects: n = 4
Healthy subjects [5]; doses below 72 mg
  rating of the drowsiness: mild or moderate
Healthy subjects [6]; 3 mg, 9 mg, 18 mg, 36 mg doses (n=4 each)
  drowsiness reported: Only the group receiving the 72 mg dose reported drowsiness
Healthy subjects [6]; 72 mg dose (n=4)
  number of subjects that reported drowsiness: 3
[1]; [7]
  depression of the mean GG discharge after L-Trp+Parg injection: 30-50%
  prevention of depression of genioglossal (GG) discharge induced by L-Trp+Parg: did not prevent
[1]; pre-treatment 1 mg/kg intraperitoneal, ten newborn rats
  prevention of depression of genioglossal (GG) discharge induced by L-Trp+Parg: efficient in preventing the GG depression
[1]; pre-treatment 3 mg/kg intraperitoneal, ten newborn rats
  prevention of depression of genioglossal (GG) discharge induced by L-Trp+Parg: confirmed the efficiency
[2]; [8]
  animals that eventually died of respiratory distress: 4 of the 10
  newborn rats in which L-Trp+Parg injection induced OAs: 9 of 10
[2]; pre-treatment 1 mg/kg
  newborn rats that did not present short lasting OAs at all: Five out of ten
  newborn rats which displayed OAs: 5 of 10
[2]; pre-treatment 1 mg/kg, among the 5 of 10 with OAs
  animals with infrequent OAs (less than 5 short lasting OAs in 60 minutes): 2
[2]; pre-treatment 1 mg/kg, between 20-40 min after the injection, significantly less than in the 0.1 mg/kg sample
  peak frequency of occurrence of short lasting OAs (mean curve): 4 OAs per 10 minute period
[2]; [9]
  newborn rats with long lasting OAs: one
  survival to L-Trp+Parg injection: all animals survived
[2]; pre-treatment 3 mg/kg
  treated rats with a total of less than 3 short lasting OAs: 3 of 10
  treated rats with frequent short lasting OAs: 2 of 10
  treated rats with no short lasting OAs: 5 of 10
[2]; pre-treatment 3 mg/kg, ten rats
  survival to L-Trp+Parg injection: all survived
